Results reported in paper PMC9090415, “Discovery of small molecule inhibitors of Plasmodium falciparum apicoplast DNA polymerase” (Journal of Enzyme Inhibition and Medicinal Chemistry, 2022).
pIC50: −log10 of the molar value.

Target: P. falciparum apicoplast DNA polymerase (Pf-apPOL) (Plasmodium falciparum, UniProt Q8ILY1)
Assay: Fluorescence-based high-throughput DNA polymerase assay (molecular beacon), primary screen and dose-response;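 as to % inhibition ApPOL 90': test concentration in µM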;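 as to % inhibition apPOL 180': test concentration in µM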
Type: biochemical
Settings: for DNA Pol: unit not given, 90 min, 10 µM; for pIC50: supplemental file 2, sheet IC50 nontoxic compounds, Pf-apPOL
In short: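 Single-point screening used 10 µM compound with 20 nM polymerase, 20 nM hairpin substrate and 6 µM dNTPs for 90 min at 25 °C. Confirmatory titrations (2.5–80 µM) followed fluorescence at three times, and IC50 was derived from a fit including a cooperativity term n.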

[1] = DRC-2, 40', concentration 5 (unit not given)

Chain of P. falciparum apicoplast DNA polymerase (Pf-apPOL) (Q8ILY1 entry or part of it): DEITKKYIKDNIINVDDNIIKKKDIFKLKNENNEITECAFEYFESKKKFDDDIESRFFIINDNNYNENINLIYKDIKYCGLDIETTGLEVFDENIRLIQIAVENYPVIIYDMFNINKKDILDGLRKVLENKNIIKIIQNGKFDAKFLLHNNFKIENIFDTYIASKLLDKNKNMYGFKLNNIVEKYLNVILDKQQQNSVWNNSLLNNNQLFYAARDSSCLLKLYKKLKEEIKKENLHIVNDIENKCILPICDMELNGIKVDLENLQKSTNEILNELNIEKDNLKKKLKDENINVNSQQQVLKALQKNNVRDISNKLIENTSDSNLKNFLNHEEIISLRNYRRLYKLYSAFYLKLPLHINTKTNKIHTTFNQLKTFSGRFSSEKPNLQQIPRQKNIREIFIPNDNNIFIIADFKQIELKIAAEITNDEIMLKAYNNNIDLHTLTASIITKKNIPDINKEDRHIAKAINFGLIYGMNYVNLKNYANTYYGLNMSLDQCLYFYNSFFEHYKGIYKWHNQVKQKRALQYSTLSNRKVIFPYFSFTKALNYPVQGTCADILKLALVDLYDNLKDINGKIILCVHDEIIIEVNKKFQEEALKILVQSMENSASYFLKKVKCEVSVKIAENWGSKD

Cc1ccc(CCNC(=O)c2cnn3c(O)c(Cc4ccccc4F)c(C)nc23)cc1 [KU0097142]
% inhibition Apo pol 10' (DRC-1, concentration 2.5): -13.7377% | % inhibition Apo pol 10' (DRC-1, concentration 5): -17.1874% | % inhibition Apo pol 10' (DRC-1, concentration 10): -18.6102% | % inhibition Apo pol 10' (DRC-1, concentration 20): 32.4745% | % inhibition Apo pol 10' (DRC-1, concentration 40): 80.8586% | % inhibition Apo pol 10' (DRC-1, concentration 80): 88.0629% | % inhibition Apol 90' (DRC-1, 90', concentration 2.5): -9.394% | % inhibition Apol 90' (DRC-1, 90', concentration 5): -5.811% | % inhibition Apol 90' (DRC-1, 90', concentration 10): -11.7224% | % inhibition Apol 90' (DRC-1, 90', concentration 20): 36.3215% | % inhibition Apol 90' (DRC-1, 90', concentration 40): 78.277% | % inhibition Apol 90' (DRC-1, 90', concentration 80): 85.9002% | % inhibition apPOL 180' (DRC-1, 180', concentration 2.5): -10.2215% | % inhibition apPOL 180' (DRC-1, 180', concentration 5): -8.372% | % inhibition apPOL 180' (DRC-1, 180', concentration 10): -12.5375% | % inhibition apPOL 180' (DRC-1, 180', concentration 20): 23.0268% | % inhibition apPOL 180' (DRC-1, 180', concentration 40): 70.309% | % inhibition apPOL 180' (DRC-1, 180', concentration 80): 81.7781% | % inhibition Apol 40' [1]: 17% | % inhibition Apol 40' (DRC-2, 40', concentration 40 (unit not given)): 67% | % inhibition ApPOL 90' (DRC-2, 90', concentration 5 (unit not given)): 17% | % inhibition ApPOL 90' (DRC-2, 90', concentration 40 (unit not given)): 67% | % inhibition apPOL 180' (DRC-2, 180', concentration 40 (unit not given)): 62% | % inhibition Apo pol 5' (DRC-2, 5', concentration 2.5): -3.79% | % inhibition Apo pol 5' (DRC-2, 5', concentration 5): 11% | % inhibition Apo pol 5' (DRC-2, 5', concentration 10): 15% | % inhibition Apo pol 5' (DRC-2, 5', concentration 20): 45% | % inhibition Apo pol 5' (DRC-2, 5', concentration 40): 57% | % inhibition Apo pol 5' (DRC-2, 5', concentration 80): 62% | % inhibition Apo pol 5' (DRC-2, 5', concentration 80 (unit not given)): 62% | % inhibition Apol 40' (DRC-2, 40', concentration 2.5): -0.896% | % inhibition Apol 40' (DRC-2, 40', concentration 5): 17% | % inhibition Apol 40' (DRC-2, 40', concentration 10): 21% | % inhibition Apol 40' (DRC-2, 40', concentration 20): 54% | % inhibition Apol 40' (DRC-2, 40', concentration 40): 67% | % inhibition Apol 40' (DRC-2, 40', concentration 80): 71% | % inhibition ApPOL 90' (DRC-2, 90', concentration 2.5): -1.26% | % inhibition ApPOL 90' (DRC-2, 90', concentration 5): 17% | % inhibition ApPOL 90' (DRC-2, 90', concentration 10): 19% | % inhibition ApPOL 90' (DRC-2, 90', concentration 20): 52% | % inhibition ApPOL 90' (DRC-2, 90', concentration 40): 67% | % inhibition ApPOL 90' (DRC-2, 90', concentration 80): 72% | % inhibition apPOL 180' (DRC-2, 180', concentration 2.5): -2.35% | % inhibition apPOL 180' (DRC-2, 180', concentration 5): 12% | % inhibition apPOL 180' (DRC-2, 180', concentration 10): 13% | % inhibition apPOL 180' (DRC-2, 180', concentration 20): 43% | % inhibition apPOL 180' (DRC-2, 180', concentration 40): 62% | % inhibition apPOL 180' (DRC-2, 180', concentration 80): 69% | DNA Pol (primary screen value of the 186 hits): 48 | DNA Pol (primary screen value, head "DNA Pol"): 48

Cc1nc2c(oc3nc(-c4ccoc4)c4c(c32)CC(C)(C)OC4)c(-c2ccccc2)c1C(=O)O [Molecule 93]
pIC50: 5.20

Cc1ccccc1C(=O)N1CCc2c(nc3cc(-c4ccccc4)[nH]n3c2=O)C1 [Molecule 41]
pIC50: 4.91

O=c1cc(CN2CCCCC2)c2cc3c(cc2o1)OCO3 [Molecule 56, O=c1cc(CN2CCCCC2)c2c(o1)cc1c(c2)OCO1]
DNA Pol ('DNA Pol' of the 186 hits list (primary screen result)): 34 | % inhibition Apo pol 10' (DRC-1, concentration 2.5): -1.492% | % inhibition Apo pol 10' (DRC-1, concentration 5): 3.303% | % inhibition Apo pol 10' (DRC-1, concentration 10): 19.9772% | % inhibition Apo pol 10' (DRC-1, concentration 20): 32.3483% | % inhibition Apo pol 10' (DRC-1, concentration 40): 45.3079% | % inhibition Apo pol 10' (DRC-1, concentration 80): 89.8826% | % inhibition Apol 90' (DRC-1, 90', concentration 2.5): 2.551% | % inhibition Apol 90' (DRC-1, 90', concentration 5): 7.455% | % inhibition Apol 90' (DRC-1, 90', concentration 10): 24.7772% | % inhibition Apol 90' (DRC-1, 90', concentration 20): 41.1965% | % inhibition Apol 90' (DRC-1, 90', concentration 40): 58.3854% | % inhibition Apol 90' (DRC-1, 90', concentration 80): 90.5438% | % inhibition apPOL 180' (DRC-1, 180', concentration 2.5): 3.723% | % inhibition apPOL 180' (DRC-1, 180', concentration 5): 9.055% | % inhibition apPOL 180' (DRC-1, 180', concentration 10): 32.8614% | % inhibition apPOL 180' (DRC-1, 180', concentration 20): 57.3951% | % inhibition apPOL 180' (DRC-1, 180', concentration 40): 81.7381% | % inhibition apPOL 180' (DRC-1, 180', concentration 80): 95.8992% | % inhibition Apo pol 5' (DRC-2, 5', concentration 10 (unit not given)): 21% | % inhibition Apol 40' (DRC-2, 40', concentration 2.5 (unit not given)): 8% | % inhibition Apol 40' [1]: 4% | % inhibition Apol 40' (DRC-2, 40', concentration 20 (unit not given)): 39% | % inhibition Apol 40' (DRC-2, 40', concentration 80 (unit not given)): 68% | % inhibition ApPOL 90' (DRC-2, 90', concentration 20 (unit not given)): 39% | % inhibition ApPOL 90' (DRC-2, 90', concentration 80 (unit not given)): 68% | % inhibition apPOL 180' (DRC-2, 180', concentration 10 (unit not given)): 21% | % inhibition Apo pol 5' (DRC-2, 5', concentration 2.5): 5.61% | % inhibition Apo pol 5' (DRC-2, 5', concentration 5): 6% | % inhibition Apo pol 5' (DRC-2, 5', concentration 10): 21% | % inhibition Apo pol 5' (DRC-2, 5', concentration 20): 35% | % inhibition Apo pol 5' (DRC-2, 5', concentration 40): 50% | % inhibition Apo pol 5' (DRC-2, 5', concentration 80): 60% | % inhibition Apol 40' (DRC-2, 40', concentration 2.5): 8% | % inhibition Apol 40' (DRC-2, 40', concentration 5): 4% | % inhibition Apol 40' (DRC-2, 40', concentration 10): 26% | % inhibition Apol 40' (DRC-2, 40', concentration 20): 39% | % inhibition Apol 40' (DRC-2, 40', concentration 40): 54% | % inhibition Apol 40' (DRC-2, 40', concentration 80): 68% | % inhibition ApPOL 90' (DRC-2, 90', concentration 2.5): 8% | % inhibition ApPOL 90' (DRC-2, 90', concentration 2.5 (unit not given)): 8% | % inhibition ApPOL 90' (DRC-2, 90', concentration 5): -0.711% | % inhibition ApPOL 90' (DRC-2, 90', concentration 10): 27% | % inhibition ApPOL 90' (DRC-2, 90', concentration 20): 39% | % inhibition ApPOL 90' (DRC-2, 90', concentration 40): 53% | % inhibition ApPOL 90' (DRC-2, 90', concentration 80): 68% | % inhibition apPOL 180' (DRC-2, 180', concentration 2.5): 4% | % inhibition apPOL 180' (DRC-2, 180', concentration 2.5 (unit not given)): 4% | % inhibition apPOL 180' (DRC-2, 180', concentration 5): -66% | % inhibition apPOL 180' (DRC-2, 180', concentration 10): 21% | % inhibition apPOL 180' (DRC-2, 180', concentration 20): 32% | % inhibition apPOL 180' (DRC-2, 180', concentration 40): 45% | % inhibition apPOL 180' (DRC-2, 180', concentration 80): 64% | DNA Pol (primary screen value of the library well): 34
